# According to US20020086342A1, “Assays for identifying phosphatase inhibitors” (priority 2000, published 2002):
# How the values were obtained:
# GST-PTPbr7 [1] = biological target: T1, GST-PTPbr7 (Mus musculus, UniProt Q62132); assay: PTPbr7 inhibition assay: peptide substrate (malachite green readout); type: biochemical; conditions: sodium orthovanadate 1 mM; peptide ENDpYINASL 0.1 mM; GST-PTPbr7 4 μg; 30 min, 25° C., pH 7.4; in absence of inhibitor 0.65
# T1 construct: purchased PanVera
# T1 sequence (Q62132 24-656): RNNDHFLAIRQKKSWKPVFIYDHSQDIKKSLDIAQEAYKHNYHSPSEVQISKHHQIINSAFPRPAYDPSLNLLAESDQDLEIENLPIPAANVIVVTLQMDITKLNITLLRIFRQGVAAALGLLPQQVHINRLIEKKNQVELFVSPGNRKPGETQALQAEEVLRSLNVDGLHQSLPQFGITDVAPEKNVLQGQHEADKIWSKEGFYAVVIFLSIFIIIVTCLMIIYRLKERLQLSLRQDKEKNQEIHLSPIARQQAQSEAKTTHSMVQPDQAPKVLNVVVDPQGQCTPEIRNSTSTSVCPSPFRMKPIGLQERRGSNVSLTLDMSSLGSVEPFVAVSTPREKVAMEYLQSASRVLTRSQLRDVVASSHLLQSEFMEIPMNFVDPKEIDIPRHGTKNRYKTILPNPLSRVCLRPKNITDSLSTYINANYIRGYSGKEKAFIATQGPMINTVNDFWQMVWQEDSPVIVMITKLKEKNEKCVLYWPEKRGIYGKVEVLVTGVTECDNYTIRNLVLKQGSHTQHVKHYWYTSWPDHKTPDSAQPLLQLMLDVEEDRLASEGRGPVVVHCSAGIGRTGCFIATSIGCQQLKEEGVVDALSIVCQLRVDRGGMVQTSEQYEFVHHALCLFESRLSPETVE
# Description: The ability of a test agent (positive control, non-specific tyrosine phosphatase inhibitor, sodium orthovanadate) to inhibit the dephosphorylation of a peptide having a phosphotyrosine residue by a PTPbr7 fusion protein was determined as follows.GST-PTPbr7 (4 μg, PanVera) is mixed together with the peptide [ENDpYINASL] (0.1 mM, American Peptide Company), with and without sodium orthovanadate (1 mM, SIGMA®-Aldrich), in a total volume of 25 μL assay buffer (50 mM Tris, 0.15 M NaCl, 5 mM DTT, 0.1% BSA), pH 7.4, at 25° C., in separate wells of a ½ volume 96-well microtiter plate (COSTAR #3690 plate), for 30 min.
# The reactions were then terminated by the addition of 100 μL of MG/AM stop solution. MG (Malachite Green) solution was obtained from SIGMA®-Aldrich cat no. M9636, and can be prepared by dissolving 500 mg/L in dH2O, filtering the solution with a Whatman #1 filter, and storing at 4° C. AM (Ammonium Molybdate) solution was obtained from SIGMA®Aldrich cat. no. A7302, 42 g/L in 4 M HCl (345 mL concentration HCl/L, stored at 4° C.). MG/AM mixture was prepared by mixing one part AM to 3 parts MG, stirring for at least 30 min, at room temperature, filtering with a Whatman #5, and storing at 4° C. […]
# The plate is then incubated at room temperature for 15 min and, after removing any bubbles, the optical density of the solution in each well was read at A620 (620 nm, spectrophotometer). […]
# GST-PTPbr7 [2] = biological target: T1, GST-PTPbr7; assay: PTPbr7 inhibition assay: fluorogenic substrate (O-methyl fluorophosphate); type: biochemical; conditions: sodium orthovanadate 1 mM; O-methyl fluorophosphate 10 μM; GST-PTPbr7 4 μg/mL; 30 min, room temperature; in absence of inhibitor 4100.00
# Description: The ability of a test agent (positive control, non-specific tyrosine phosphatase inhibitor, sodium orthovanadate) to inhibit the dephosphorylation of a fluorogenic substrate by a PTPbr7 fusion protein was determined as follows.
# 80 μL of the diluted substrate (final concentration of 10 μM) was then added to each of two wells of a 96-well microtiter plate (COSTAR #3690 plate), followed by, in one of the wells, sodium orthovanadate (1 mM, final concentration), and in both wells, 20 μL of GST-PTPbr7 (4 μg, PanVera) to give a final enzyme concentration in each of the assays of 4 μg/mL. The reactions were incubated at room temperature for 30 min. For each reaction, the fluorescent emission was measured by excitation at 485 nm and emission at 535 nm using a Victor II plate reader (Packard). The presence of the test agent (sodium orthovanadate) in the reaction caused a decrease in the fluorescent signal (1250.00) compared to the reaction in the absence of inhibitor (4100.00).
# [3] = system: PTPbr7 mRNA in PC12 cells; conditions: PC12 cells following treatment with NGF; Sharma and Lombroso 1995; cited from earlier work
# PC12 cells = assay: NGF-induced neurite outgrowth in PC12 cell lines transfected with full length mouse PTPbr7; type: cell-based, rat; conditions: 50 ng/mL NGF for 6 days
# Excerpt: Total mouse brain RNA (Strategene) was subjected to RT-PCR cloning using […] as the 5′ primer, and […] as the 3′ primer (CPMB, see, in particular, Chapter 15, The Polymerase Chain Reaction, Supplement 30). The cDNA clone (full length mouse PTPbr7) was introduced into PC12 cells by transfection using Lipofectamine™ Reagent (Life Technologies) and substantially following the instructional sheet (for adherent cells, see also, CPMB, in particular, Chapter 9, Introduction of DNA into Mammalian Cells, Supplement 39) which specifies the concentration of DNA and reagent, cell density, transfection times, and transfection protocol. Stable cell lines were selected in (200 μg/mL) G418 (Life Technologies), as also provided by the instructional sheet, and the overexpressing cell lines were identified by Northern Blot analysis (see CPMB, in particular, Chapter 4, Preparation and Analysis of RNA, Chapter 4.9.1, Analysis of RNA by Northern Blot Hybridization, Supplement 26). The transfected cell lines were then treated with 50 ng/mL NGF (Life Technologies) for 6 days. The degree of neurite outgrowth was quantitated using photomicrographs where the total number of cells in the field was counted, then the cells were recounted that had one or more neurites that were greater than or equal to one cell body diameter in length, and a “% neurites” was determined.
Compound,optical density 620 nm (GST-PTPbr7 [1]),"fluorescent signal (excitation 485 nm, emission 535 nm) (GST-PTPbr7 [2])",upregulation of PTPbr7 mRNA [3],"% Neurite on Day 6 (+NGF) (PC12 cells; cell line br7-9, PTPbr7 expression none)","% Neurite on Day 6 (+NGF) (PC12 cells; cell line br7-11, PTPbr7 expression high)","% Neurite on Day 6 (+NGF) (PC12 cells; cell line br7-12, PTPbr7 expression high)","% Neurite on Day 6 (+NGF) (PC12 cells; cell line br7-13, PTPbr7 expression high)"
[Na+].[Na+].[Na+].[O]=[V]([O-])([O-])[O-] [sodium orthovanadate],0.10,1250.00,,,,,
"NGF: Nerve growth factor, a neurotrophic factor which mediates the survival, differentiation and maintenance of specific populations of neurons",,,8 fold,52%,26%,24%,32%
